ChEMBL document CHEMBL5505993, “Identification of a ferritinophagy inducer via sinomenine modification for the treatment of colorectal cancer” (Eur J Med Chem, 2024)
pIC50: −log10 of the molar value.

Legend:
HT-29 = experiment: Cytotoxicity against human HT-29 cells assessed as inhibition of cell growth incubated for 48 hrs by CCK-8 assay; format: functional, cell-based; settings: HT-29, 48 h
[1] = Cytotoxicity against human NCM460 cells assessed as inhibition of cell growth incubated for 48 hrs by CCK-8 assay; format: toxicity, cell-based
HCT-116 = experiment: Cytotoxicity against human HCT-116 cells assessed as inhibition of cell growth incubated for 48 hrs by CCK-8 assay; format: functional, cell-based; settings: HCT-116, 48 h

Structure (SMILES)	pIC50 (HT-29)	IC50 at 48 h [1]	pIC50 (HCT-116)
COC1=C[C@@H]2[C@@H]3Cc4ccc(OC)c(OC(=O)c5ccc(Cl)cc5)c4[C@]2(CCN3C)CC1=O	4.60	> 50 µM	< 4.30
COC1=C[C@@H]2[C@@H]3Cc4ccc(OC)c(OC(=O)c5ccccc5)c4[C@]2(CCN3C)CC1=O	< 4.30	> 50 µM	< 4.30
COCC(=O)Oc1c(OC)ccc2c1[C@@]13CCN(C)[C@@H](C2)[C@H]1C=C(OC)C(=O)C3	< 4.30	> 50 µM	< 4.30
COC1=C[C@@H]2[C@@H]3Cc4ccc(OC)c(OC(C)=O)c4[C@]2(CCN3C)CC1=O	< 4.30	> 50 µM	< 4.30
C=CC(=O)NCCCCCCCCCCCC(=O)Oc1c(OC)ccc2c1[C@@]13CCN(C)[C@@H](C2)[C@H]1C=C(OC)C(=O)C3	5.15	33.2 µM	4.69
COC1=C[C@@H]2[C@@H]3Cc4ccc(OC)c(OC(=O)CCCCCCCNC(=O)/C=C/C(F)(F)F)c4[C@]2(CCN3C)CC1=O	< 4.30	> 50 µM	< 4.30
C=C(Cl)C(=O)NCCCCCCCC(=O)Oc1c(OC)ccc2c1[C@@]13CCN(C)[C@@H](C2)[C@H]1C=C(OC)C(=O)C3	4.75	> 50 µM	4.71
COC1=C[C@@H]2[C@@H]3Cc4ccc(OC)c(OC(=O)CCCCCCCCCCCNC(=O)/C=C/C(F)(F)F)c4[C@]2(CCN3C)CC1=O	5.06	22.9 µM	5.11
C=C(Cl)C(=O)NCCC(=O)Oc1c(OC)ccc2c1[C@@]13CCN(C)[C@@H](C2)[C@H]1C=C(OC)C(=O)C3	5.02	34.5 µM	5.32
CCO/C=C/C(=O)Oc1c(OC)ccc2c1[C@@]13CCN(C)[C@@H](C2)[C@H]1C=C(OC)C(=O)C3	< 4.30	> 50 µM	< 4.30
C=CCCC(=O)Oc1c(OC)ccc2c1[C@@]13CCN(C)[C@@H](C2)[C@H]1C=C(OC)C(=O)C3	< 4.30	> 50 µM	< 4.30
C=C(C)C(=O)Oc1c(OC)ccc2c1[C@@]13CCN(C)[C@@H](C2)[C@H]1C=C(OC)C(=O)C3	< 4.30	> 50 µM	4.21
COC1=C[C@@H]2[C@@H]3Cc4ccc(OC)c(OC(=O)/C=C/C(F)(F)F)c4[C@]2(CCN3C)CC1=O	5.22	16 µM	5.22
C=C(Cl)C(=O)Oc1c(OC)ccc2c1[C@@]13CCN(C)[C@@H](C2)[C@H]1C=C(OC)C(=O)C3	5.06	35.2 µM	4.89
CCCCCCC(=O)Oc1c(OC)ccc2c1[C@@]13CCN(C)[C@@H](C2)[C@H]1C=C(OC)C(=O)C3	4.50	> 50 µM	< 4.30
COC1=C[C@@H]2[C@@H]3Cc4ccc(OC)c(O)c4[C@]2(CCN3C)CC1=O [SINOMENINE]	< 4.30	> 50 µM	< 4.30
COC1=C[C@@H]2[C@@H]3Cc4ccc(OC)c(OC(=O)c5ccc(OC)cc5)c4[C@]2(CCN3C)CC1=O	< 4.30	> 50 µM	< 4.30
COC1=C[C@@H]2[C@@H]3Cc4ccc(OC)c(OC(=O)CCl)c4[C@]2(CCN3C)CC1=O	< 4.30	> 50 µM	4.48
COC1=C[C@@H]2[C@@H]3Cc4ccc(OC)c(OC(=O)C(C)C)c4[C@]2(CCN3C)CC1=O	< 4.30	> 50 µM	< 4.30
C=CC(=O)Oc1c(OC)ccc2c1[C@@]13CCN(C)[C@@H](C2)[C@H]1C=C(OC)C(=O)C3	5.04	32.5 µM	5.15
COC1=C[C@@H]2[C@@H]3Cc4ccc(OC)c(OC(=O)C5CC5)c4[C@]2(CCN3C)CC1=O	< 4.30	> 50 µM	< 4.30
CCCC(=O)Oc1c(OC)ccc2c1[C@@]13CCN(C)[C@@H](C2)[C@H]1C=C(OC)C(=O)C3	< 4.30	> 50 µM	< 4.30
C/C=C/C(=O)Oc1c(OC)ccc2c1[C@@]13CCN(C)[C@@H](C2)[C@H]1C=C(OC)C(=O)C3	< 4.30	> 50 µM	< 4.30
COC1=C[C@@H]2[C@@H]3Cc4ccc(OC)c(OC(=O)/C=C/c5ccccc5)c4[C@]2(CCN3C)CC1=O	< 4.30	> 50 µM	< 4.30
C=CC(=O)NCCCCCCCC(=O)Oc1c(OC)ccc2c1[C@@]13CCN(C)[C@@H](C2)[C@H]1C=C(OC)C(=O)C3	< 4.30	> 50 µM	< 4.30
C=CC(=O)NCCC(=O)Oc1c(OC)ccc2c1[C@@]13CCN(C)[C@@H](C2)[C@H]1C=C(OC)C(=O)C3	< 4.30	> 50 µM	< 4.30
COC1=C[C@@H]2[C@@H]3Cc4ccc(OC)c(OC(=O)CCNC(=O)/C=C/C(F)(F)F)c4[C@]2(CCN3C)CC1=O	< 4.30	> 50 µM	< 4.30
CCCCCCCCCCCC(=O)Oc1c(OC)ccc2c1[C@@]13CCN(C)[C@@H](C2)[C@H]1C=C(OC)C(=O)C3	5.40	9.85 µM	5.24
